PubChem BioAssay (NCI)
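These data come from cells grown in 96-well plates and exposed to compound for 48 hours at five concentrations. GI50: concentration for 50% inhibition of growth. At the TGI there is no net growth.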

Key:
Test in all cases: NCI anticancer screen, dose series, 48 h
786-0 renal = tested on: 786-0 renal
OVCAR-8 ovarian = tested on: OVCAR-8 ovarian
HCT-15 colon = tested on: HCT-15 colon
OVCAR-5 ovarian = tested on: OVCAR-5 ovarian
HCC-2998 colon = tested on: HCC-2998 colon
SW-620 colon = tested on: SW-620 colon
MOLT-4 leukemia = tested on: MOLT-4 leukemia
EKVX NSCLC = tested on: EKVX NSCLC
A498 renal = tested on: A498 renal
K-562 leukemia = tested on: K-562 leukemia
MDA-MB-435 = tested on: MDA-MB-435
KM12 colon = tested on: KM12 colon
UACC-62 melanoma = tested on: UACC-62 melanoma
NCI/ADR-RES ovarian = tested on: NCI/ADR-RES ovarian
UO-31 renal = tested on: UO-31 renal
A549 NSCLC = tested on: A549 NSCLC
T-47D breast = tested on: T-47D breast
LOX IMVI melanoma = tested on: LOX IMVI melanoma
COLO 205 colon = tested on: COLO 205 colon
CCRF-CEM leukemia = tested on: CCRF-CEM leukemia
SK-MEL-5 melanoma = tested on: SK-MEL-5 melanoma
NCI-H522 lung = tested on: NCI-H522 lung
RXF 393 renal = tested on: RXF 393 renal
SN12C renal = tested on: SN12C renal
OVCAR-3 ovarian = tested on: OVCAR-3 ovarian
MDA-MB-468 breast = tested on: MDA-MB-468 breast
HCT-116 colon = tested on: HCT-116 colon
HOP-92 NSCLC = tested on: HOP-92 NSCLC
NCI-H23 lung = tested on: NCI-H23 lung
OVCAR-4 ovarian = tested on: OVCAR-4 ovarian
TK-10 renal = tested on: TK-10 renal
SNB-75 CNS = tested on: SNB-75 CNS
HT29 colon = tested on: HT29 colon
RPMI-8226 leukemia = tested on: RPMI-8226 leukemia
ACHN renal = tested on: ACHN renal
CAKI-1 renal = tested on: CAKI-1 renal
MALME-3M melanoma = tested on: MALME-3M melanoma
HOP-62 NSCLC = tested on: HOP-62 NSCLC
MDA-MB-231 breast = tested on: MDA-MB-231 breast
SF-295 CNS = tested on: SF-295 CNS
BT-549 breast = tested on: BT-549 breast
NCI-H226 lung = tested on: NCI-H226 lung
DU-145 prostate = tested on: DU-145 prostate
PC-3 prostate = tested on: PC-3 prostate
SK-MEL-2 melanoma = tested on: SK-MEL-2 melanoma
HS 578T breast = tested on: HS 578T breast
M14 melanoma = tested on: M14 melanoma
U251 CNS = tested on: U251 CNS
HL-60(TB) leukemia = tested on: HL-60(TB) leukemia
SF-268 CNS = tested on: SF-268 CNS
UACC-257 melanoma = tested on: UACC-257 melanoma
NCI-H460 lung = tested on: NCI-H460 lung
SK-MEL-28 melanoma = tested on: SK-MEL-28 melanoma
SNB-19 CNS = tested on: SNB-19 CNS
SR leukemia = tested on: SR leukemia
IGROV1 ovarian = tested on: IGROV1 ovarian
SF-539 CNS = tested on: SF-539 CNS
MCF7 breast = tested on: MCF7 breast
SK-OV-3 ovarian = tested on: SK-OV-3 ovarian

`CC(=O)N1CCN(Cc2ccc3c(NNC(=O)c4cnccn4)nc4cc(F)ccc4n23)CC1` was tested, and the GI50 (786-0 renal) was 0.342 µM, the TGI (786-0 renal) was 6.55 µM and the GI50 (OVCAR-8 ovarian) was 0.454 µM. It also gave a TGI (OVCAR-8 ovarian) of over 34.1 µM, a GI50 (HCT-15 colon) of 0.197 µM and a TGI (HCT-15 colon) of 19 µM. It also gave a GI50 (OVCAR-5 ovarian) of 1.09 µM, a TGI (OVCAR-5 ovarian) of 24.4 µM and a GI50 (HCC-2998 colon) of 0.96 µM. For the same compound, the TGI (HCC-2998 colon) was 19 µM, the GI50 (SW-620 colon) was 0.633 µM and the TGI (SW-620 colon) was over 63 µM. It also gave a GI50 (MOLT-4 leukemia) of 0.387 µM, a TGI (MOLT-4 leukemia) of 15.5 µM and a GI50 (EKVX NSCLC) of 0.312 µM. The TGI (EKVX NSCLC) was 10.3 µM, the GI50 (A498 renal) was 22.7 µM and the TGI (A498 renal) was 37.8 µM. The GI50 (K-562 leukemia) was 0.753 µM, the TGI (K-562 leukemia) was 33.5 µM and the GI50 (MDA-MB-435) was 1.51 µM. It also gave a TGI (MDA-MB-435) of over 100 µM, a GI50 (KM12 colon) of 0.537 µM and a TGI (KM12 colon) of over 81.3 µM. For the same compound, the GI50 (UACC-62 melanoma) was 0.435 µM, the TGI (UACC-62 melanoma) was 2.21 µM and the GI50 (NCI/ADR-RES ovarian) was 1.17 µM. It also gave a TGI (NCI/ADR-RES ovarian) of 12.3 µM, a GI50 (UO-31 renal) of 0.163 µM and a TGI (UO-31 renal) of 7.66 µM. The GI50 (A549 NSCLC) was 0.596 µM, the TGI (A549 NSCLC) was 17.5 µM and the GI50 (T-47D breast) was 1.7 µM. The TGI (T-47D breast) was 36.8 µM, the GI50 (LOX IMVI melanoma) was 0.371 µM and the TGI (LOX IMVI melanoma) was 3.09 µM. For the same compound, the GI50 (COLO 205 colon) was 0.436 µM, the TGI (COLO 205 colon) was 11.4 µM and the GI50 (CCRF-CEM leukemia) was 0.374 µM. The TGI (CCRF-CEM leukemia) was 10.6 µM, the GI50 (SK-MEL-5 melanoma) was 0.605 µM and the TGI (SK-MEL-5 melanoma) was 4.98 µM. It also gave a GI50 (NCI-H522 lung) of 1.26 µM, a TGI (NCI-H522 lung) of 15.7 µM and a GI50 (RXF 393 renal) of 1.45 µM. The TGI (RXF 393 renal) was 12.4 µM, the GI50 (SN12C renal) was 0.864 µM and the TGI (SN12C renal) was over 100 µM. For the same compound, the GI50 (OVCAR-3 ovarian) was 0.724 µM, the TGI (OVCAR-3 ovarian) was 30.5 µM and the GI50 (MDA-MB-468 breast) was 0.525 µM. For the same compound, the TGI (MDA-MB-468 breast) was 3.39 µM, the GI50 (HCT-116 colon) was 0.309 µM and the TGI (HCT-116 colon) was 18.8 µM. The GI50 (HOP-92 NSCLC) was 0.331 µM, the TGI (HOP-92 NSCLC) was 14.6 µM and the GI50 (NCI-H23 lung) was 0.909 µM. It also gave a TGI (NCI-H23 lung) of 13.2 µM, a GI50 (OVCAR-4 ovarian) of 0.64 µM and a TGI (OVCAR-4 ovarian) of 41.7 µM. For the same compound, the GI50 (TK-10 renal) was 0.304 µM, the TGI (TK-10 renal) was 45.7 µM and the GI50 (SNB-75 CNS) was 1.39 µM. For the same compound, the TGI (SNB-75 CNS) was 99.3 µM, the GI50 (HT29 colon) was 0.501 µM and the TGI (HT29 colon) was 21 µM. For the same compound, the GI50 (RPMI-8226 leukemia) was 0.823 µM, the TGI (RPMI-8226 leukemia) was over 39.7 µM and the GI50 (ACHN renal) was 0.311 µM. It also gave a TGI (ACHN renal) of 12.3 µM, a GI50 (CAKI-1 renal) of 0.477 µM and a TGI (CAKI-1 renal) of 18.8 µM. It also gave a GI50 (MALME-3M melanoma) of 1.22 µM, a TGI (MALME-3M melanoma) of 10.9 µM and a GI50 (HOP-62 NSCLC) of 0.41 µM. For the same compound, the TGI (HOP-62 NSCLC) was 23.6 µM, the GI50 (MDA-MB-231 breast) was 0.736 µM and the TGI (MDA-MB-231 breast) was 25.2 µM. For the same compound, the GI50 (SF-295 CNS) was 0.29 µM, the TGI (SF-295 CNS) was 29.9 µM and the GI50 (BT-549 breast) was 0.995 µM. For the same compound, the TGI (BT-549 breast) was 19.6 µM, the GI50 (NCI-H226 lung) was 0.742 µM and the TGI (NCI-H226 lung) was 11.2 µM. The GI50 (DU-145 prostate) was 0.873 µM, the TGI (DU-145 prostate) was over 100 µM and the GI50 (PC-3 prostate) was 0.525 µM. It also gave a TGI (PC-3 prostate) of over 52.4 µM, a GI50 (SK-MEL-2 melanoma) of 1.28 µM and a TGI (SK-MEL-2 melanoma) of 11.4 µM. For the same compound, the GI50 (HS 578T breast) was 13.2 µM, the TGI (HS 578T breast) was over 100 µM and the GI50 (M14 melanoma) was 0.333 µM. It also gave a TGI (M14 melanoma) of 2.24 µM, a GI50 (U251 CNS) of 0.505 µM and a TGI (U251 CNS) of 48.7 µM. The GI50 (HL-60(TB) leukemia) was 0.461 µM, the TGI (HL-60(TB) leukemia) was 4.54 µM and the GI50 (SF-268 CNS) was 0.609 µM. The TGI (SF-268 CNS) was over 100 µM, the GI50 (UACC-257 melanoma) was 1.68 µM and the TGI (UACC-257 melanoma) was 10.5 µM. The GI50 (NCI-H460 lung) was 0.408 µM, the TGI (NCI-H460 lung) was over 36 µM and the GI50 (SK-MEL-28 melanoma) was 0.624 µM. For the same compound, the TGI (SK-MEL-28 melanoma) was 31.6 µM, the GI50 (SNB-19 CNS) was 1.2 µM and the TGI (SNB-19 CNS) was over 100 µM. It also gave a GI50 (SR leukemia) of 0.389 µM, a TGI (SR leukemia) of 10.7 µM and a GI50 (IGROV1 ovarian) of 0.784 µM. It also gave a TGI (IGROV1 ovarian) of over 52.9 µM, a GI50 (SF-539 CNS) of 0.787 µM and a TGI (SF-539 CNS) of 6.04 µM. For the same compound, the GI50 (MCF7 breast) was 0.898 µM, the TGI (MCF7 breast) was 31.2 µM and the GI50 (SK-OV-3 ovarian) was 0.492 µM. The TGI (SK-OV-3 ovarian) was 13.7 µM.
